From patent US11559518B2, “Endoplasmic reticulum stress regulator comprising benzothiazoimidazolyl compound” (ER Stress Research Institute, Inc., priority 2017, dated 2023)

Experiments:
[1] = tested on: endoplasmic reticulum stress response (EUA activity) in 293A transformed cells; experiment: Endoplasmic reticulum stress reporter (10×ERSE2-10×UPRE-5×AARE-EGFP) fluorescence under Tunicamycin; type: cell-based; details: for inhibition at 5 µM: 293A, read-out: Endoplasmic reticulum stress inhibition rate (Z)%; for Suppression of EUA activity (endoplasmic reticulum stress response activation) caused by Tunicamycin: FIG. 5
[2] = tested on: 293A transformed cell line; details: FIG. 8; for Cell proliferation on treatment with the stress inducer / cytotoxic compound alone: no test compound added
Protocol: It is noted that in addition to Tm, camptothecin (CPT) was also used as a compound to confer cytotoxicity, and this was used as a positive control for cell death. Cell proliferation rate was determined by obtaining bright field images using a high content confocal imaging system (PerkinElmer, Operetta CLS) at intervals of 4 hours after starting the experiment, and calculating cell density from the bright field image using an image analysis software Harmony (PerkinElmer).

[3] = tested on: 293A transformed cell line; experiment: Intracellular ATP level (viability) of Tm-treated 293A transformed cell line; type: cell-based; details: Tm treatment; 43 hours; FIG. 9
Protocol: (§1) Intracellular ATP level or activity of lactate dehydrogenase (LDH), which is released from cells that have been damaged in the cell membrane, were measured in order to confirm the effect of Compound No. 1 against cell growth or cytotoxicity. […] Each were measured using an ATP assay kit (Promega, Celltiter-glo) and LDH activity measurement kit (Dojindo, Cytotoxicity LDH Assay Kit-WST) using a multiplate reader, Cytation 3 (Bio-Tek) according to the protocols of the kits (number of tests n=4).

[4] = tested on: 293A transformed cell line; experiment: Lactate dehydrogenase (LDH) release (cytotoxicity) of Tm-treated 293A transformed cell line; type: cell-based; details: 43 hours, FIG. 10
Protocol: as §1

[5] = Compound concentration: 5 μM, Tm-induced, EGFP fluorescence

| Molecule | inhibition at 5 µM [1, 5] | further results |
| --- | --- | --- |
| Cc1ccc(-c2cn3c(n2)sc2cc(C(=O)NCCCN4CCOCC4)ccc23)cc1 [compound 11] | 66% | – |
| CC[C@@]1(O)C(=O)OCc2c1cc1n(c2=O)Cc2cc3ccccc3nc2-1 [camptothecin] | – | Cell proliferation on treatment with the stress inducer / cytotoxic compound alone [2]: almost completely inhibited |
| Fc1ccccc1-c1cn2c(n1)sc1ccccc12 [compound 5] | 79% | – |
| O=C(NCCCN1CCCCC1)c1ccc2c(c1)sc1nc(-c3ccccc3)cn12 [compound 10] | 41% | – |
| C[C@H](CCC(=O)NCCS(=O)(=O)O)[C@H]1CC[C@H]2[C@@H]3[C@@H](O)C[C@@H]4C[C@H](O)CC[C@]4(C)[C@H]3CC[C@]12C [TUDCA, Tauroursodeoxycholic Acid, reference compound] | 0% | Suppression of EUA activity (endoplasmic reticulum stress response activation) caused by Tunicamycin ([1]; concentration not given): could not suppress |
| Cc1ccc(-c2cn3c(n2)sc2cc(C(=O)NCCCN4CCCCC4C)ccc23)cc1 (centres unmarked) [compound 7] | 95% | – |
| COC(=O)c1ccc2c(c1)sc1nc(-c3ccccc3)cn12 [compound 2] | 100% | – |
| CCc1ccc(-c2cn3c(n2)sc2cc(C(=O)OC)ccc23)cc1 [compound 4] | 99% | – |
| CCN(CC)CCCNC(=O)c1ccc2c(c1)sc1nc(-c3ccc(OC)cc3)cn12 [compound 6] | 93% | – |
| CCOC(=O)C1CCN(C(=O)c2ccc3c(c2)sc2nc(-c4ccc(OC)cc4)cn23)CC1 [compound 13] | 60% | – |
| CCCC(=O)NCCc1csc(-c2ccc(Cl)cc2)n1 [Azoramide] | – | Intracellular ATP level recovered, % of that of UT cells [3]: approximately 75%; Cell proliferation recovered, % of that of UT cells ([2]; 40 μM, 0.2 μg/mL Tm): approximately 58%; LDH activity increased by Tm treatment, decreased to % of that of UT cells [4]: approximately 50%; Suppression of EUA activity (endoplasmic reticulum stress response activation) caused by Tunicamycin ([1]; 40 μM): had an inhibitory effect; Endoplasmic reticulum stress inhibition rate (Z)% [1, 5]: 0% |
| Clc1ccc(-c2cn3c(n2)sc2ccccc23)cc1 [compound 3] | 101% | – |
| CCN(CC)CCCNC(=O)c1ccc2c(c1)sc1nc(-c3ccccc3)cn12 [compound 9] | 61% | – |
| CS(=O)(=O)c1ccc2c(c1)sc1nc(-c3ccccc3Cl)cn12 [compound 12] | 54% | – |
| Tunicamycin [Tm] | – | Cell proliferation on treatment with the stress inducer / cytotoxic compound alone [2]: almost completely inhibited |
| O=C([O-])CCCc1ccccc1.[Na+] [4PBA, Sodium 4-phenylbutyrate, reference compound] | 0% | Suppression of EUA activity (endoplasmic reticulum stress response activation) caused by Tunicamycin ([1]; concentration not given): could not suppress |
| COc1cccc(-c2cn3c(n2)sc2cc(C(=O)NCCCN4CCOCC4)ccc23)c1 [compound 8] | 98% | – |
